Reference: ChEMBL document CHEMBL2057118, “Synthesis and biological evaluation of novel 2,4,6-triazine derivatives as antimicrobial agents” (2012)
≈ marks a conversion by molar mass, not a printed value.

Legend:
Assay type in all cases: functional
Aspergillus niger = experiment: Antifungal activity against Aspergillus niger MTCC 1781 after 2 to 3 days by agar well diffusion method
Bacillus subtilis = experiment: Antimicrobial activity against Bacillus subtilis MTCC 441 after 24 hrs by agar well diffusion method; conditions: for MIC: Bacillus subtilis, MTCC 441, 24 h
Staphylococcus aureus = experiment: Antimicrobial activity against Staphylococcus aureus MTCC 96 after 24 hrs by agar well diffusion method; conditions: for MIC: Staphylococcus aureus, MTCC 96, 24 h
Pseudomonas aeruginosa = experiment: Antimicrobial activity against Pseudomonas aeruginosa MTCC 1688 after 24 hrs by agar well diffusion method; conditions: for MIC: Pseudomonas aeruginosa, MTCC 1688, 24 h
Escherichia coli = experiment: Antimicrobial activity against Escherichia coli MTCC 1650 after 24 hrs by agar well diffusion method; conditions: for MIC: Escherichia coli, MTCC 1650, 24 h
Candida albicans = experiment: Antifungal activity against Candida albicans MTCC 227 after 2 to 3 days by agar well diffusion method

| Compound | inhibition zone (IZ) (Aspergillus niger) | MIC (Aspergillus niger; Aspergillus niger, MTCC 1781) | inhibition zone (IZ) (Bacillus subtilis) | MIC (Bacillus subtilis) | inhibition zone (IZ) (Staphylococcus aureus) | MIC (Staphylococcus aureus) | inhibition zone (IZ) (Pseudomonas aeruginosa) | MIC (Pseudomonas aeruginosa) | inhibition zone (IZ) (Escherichia coli) | MIC (Escherichia coli) | inhibition zone (IZ) (Candida albicans) | MIC (Candida albicans; Candida albicans, MTCC 227) | MIC (Aspergillus niger) | MIC (Candida albicans) |
| --- | --- | --- | --- | --- | --- | --- | --- | --- | --- | --- | --- | --- | --- | --- |
| Cl.N#Cc1ccc(Nc2nc(NCCN3CCOCC3)nc(NCCN3CCOCC3)n2)cn1 | 14 mm | 50 µg/mL | 10 mm | 25 µg/mL | 12 mm | 50 µg/mL | 12 mm | 25 µg/mL | 14 mm | 25 µg/mL | 12 mm | 25 µg/mL |  |  |
| Cl.N#Cc1ccc(Nc2nc(N3CCNCC3)nc(N3CCNCC3)n2)cn1 | 14 mm | 100 µg/mL | 12 mm | 50 µg/mL | 12 mm | 50 µg/mL | 10 mm | 50 µg/mL | 12 mm | 50 µg/mL | 14 mm | 25 µg/mL |  |  |
| COc1cccc(Nc2nc(Nc3ccc(C#N)nc3)nc(Nc3cccc(OC)c3)n2)c1.Cl | 12 mm | 25 µg/mL | 10 mm | 12.5 µg/mL | 12 mm | 6.25 µg/mL | 12 mm | 12.5 µg/mL | 14 mm | 6.25 µg/mL | 12 mm | 25 µg/mL |  |  |
| CC(=O)N1CCN(c2nc(Nc3ccc(C#N)nc3)nc(N3CCN(C(C)=O)CC3)n2)CC1.Cl | 14 mm | 100 µg/mL | 12 mm | 50 µg/mL | 12 mm | 50 µg/mL | 10 mm | 50 µg/mL | 12 mm | 50 µg/mL | 14 mm | 25 µg/mL |  |  |
| Cl.N#Cc1ccc(Nc2nc(NC3CCCC3)nc(NC3CCCC3)n2)cn1 | 12 mm | 25 µg/mL | 12 mm | 6.25 µg/mL | 12 mm | 6.25 µg/mL | 12 mm | 12.5 µg/mL | 10 mm | 6.25 µg/mL | 12 mm | 25 µg/mL |  |  |
| Cc1ccc(Nc2nc(Nc3ccc(C)cc3)nc(Nc3ccc(C#N)nc3)n2)cc1.Cl | 14 mm | 100 µg/mL | 12 mm | 25 µg/mL | 12 mm | 12.5 µg/mL | 10 mm | 25 µg/mL | 12 mm | 12.5 µg/mL | 14 mm | 25 µg/mL |  |  |
| Cl.N#Cc1ccc(Nc2nc(N3CCCC3)nc(N3CCCC3)n2)cn1 | 14 mm | 50 µg/mL | 12 mm | 100 µg/mL | 12 mm | 100 µg/mL | 12 mm | 100 µg/mL | 12 mm | 50 µg/mL | 12 mm | 50 µg/mL |  |  |
| COCCNc1nc(NCCOC)nc(Nc2ccc(C#N)nc2)n1.Cl | 14 mm | 12.5 µg/mL | 12 mm | 6.25 µg/mL | 12 mm | 12.5 µg/mL | 12 mm | 6.25 µg/mL | 12 mm | 6.25 µg/mL | 12 mm | 12.5 µg/mL |  |  |
| CN[C@@H]1[C@H](O[C@H]2[C@H](O[C@H]3[C@H](O)[C@@H](O)[C@H](N=C(N)N)[C@@H](O)[C@@H]3N=C(N)N)O[C@@H](C)[C@]2(O)C=O)O[C@@H](CO)[C@H](O)[C@H]1O [STREPTOMYCIN] |  |  | 22 mm | 6.25 µg/mL (≈ 10.7 µM) | 20 mm | 6.25 µg/mL (≈ 10.7 µM) | 24 mm | 6.25 µg/mL (≈ 10.7 µM) | 22 mm | 6.25 µg/mL (≈ 10.7 µM) |  |  |  |  |
| Cl.N#Cc1ccc(Nc2nc(N3CCN(c4ccccc4)CC3)nc(N3CCN(c4ccccc4)CC3)n2)cn1 | 14 mm | 25 µg/mL | 10 mm | 6.25 µg/mL | 12 mm | 6.25 µg/mL | 10 mm | 6.25 µg/mL | 12 mm | 6.25 µg/mL | 14 mm | 25 µg/mL |  |  |
| CN(C)CCNc1nc(NCCN(C)C)nc(Nc2ccc(C#N)nc2)n1.Cl | 12 mm | 25 µg/mL | 12 mm | 25 µg/mL | 12 mm | 12.5 µg/mL | 12 mm | 12.5 µg/mL | 14 mm | 12.5 µg/mL | 14 mm | 25 µg/mL |  |  |
| Cl.N#Cc1ccc(Nc2nc(N3CCCCC3)nc(N3CCCCC3)n2)cn1 | 14 mm | 25 µg/mL | 10 mm | 50 µg/mL | 12 mm | 50 µg/mL | 12 mm | 25 µg/mL | 14 mm | 25 µg/mL | 10 mm | 50 µg/mL |  |  |
| Cl.N#Cc1ccc(Nc2nc(NCc3ccco3)nc(NCc3ccco3)n2)cn1 | 12 mm | 12.5 µg/mL | 10 mm | 6.25 µg/mL | 12 mm | 6.25 µg/mL | 12 mm | 6.25 µg/mL | 14 mm | 6.25 µg/mL | 12 mm | 12.5 µg/mL |  |  |
| Cl.N#Cc1ccc(Nc2nc(N3CCOCC3)nc(N3CCOCC3)n2)cn1 | 14 mm | 100 µg/mL | 12 mm | 50 µg/mL | 12 mm | 50 µg/mL | 10 mm | 50 µg/mL | 12 mm | 50 µg/mL | 14 mm | 50 µg/mL |  |  |
| Cl.N#Cc1ccc(Nc2nc(Nc3ccc(F)cc3)nc(Nc3ccc(F)cc3)n2)cn1 | 12 mm | 25 µg/mL | 10 mm | 25 µg/mL | 12 mm | 25 µg/mL | 12 mm | 50 µg/mL | 14 mm | 25 µg/mL | 12 mm | 25 µg/mL |  |  |
| CN1CCN(c2nc(Nc3ccc(C#N)nc3)nc(N3CCN(C)CC3)n2)CC1.Cl | 12 mm | 50 µg/mL | 12 mm | 12.5 µg/mL | 12 mm | 12.5 µg/mL | 10 mm | 12.5 µg/mL | 12 mm | 12.5 µg/mL | 10 mm | 50 µg/mL |  |  |
| Cl.N#Cc1ccc(Nc2nc(N3CCN(C(=O)c4ccccc4)CC3)nc(N3CCN(C(=O)c4ccccc4)CC3)n2)cn1 | 12 mm | 50 µg/mL | 10 mm | 12.5 µg/mL | 12 mm | 12.5 µg/mL | 14 mm | 25 µg/mL | 12 mm | 25 µg/mL | 14 mm | 50 µg/mL |  |  |
| Cl.N#Cc1ccc(Nc2nc(Nc3cc[nH]n3)nc(Nc3cc[nH]n3)n2)cn1 | 14 mm | 12.5 µg/mL | 10 mm | 6.25 µg/mL | 12 mm | 12.5 µg/mL | 14 mm | 12.5 µg/mL | 12 mm | 6.25 µg/mL | 14 mm | 12.5 µg/mL |  |  |
| NYSTATIN | 20 mm |  |  |  |  |  |  |  |  |  | 20 mm |  | 6.25 µg/mL | 6.25 µg/mL |
| Cl.N#Cc1ccc(Nc2nc(NC3CCCCC3)nc(NC3CCCCC3)n2)cn1 | 14 mm | 12.5 µg/mL | 12 mm | 6.25 µg/mL | 12 mm | 6.25 µg/mL | 10 mm | 6.25 µg/mL | 12 mm | 6.25 µg/mL | 14 mm | 12.5 µg/mL |  |  |
